Assay [1] deals with trichophyton mentagrophytes TIMM 2789. Description: Therapeutic efficacy on experimental tinea pedis in guinea pigs (Test Example 2). It is filed as in vivo. How it is done: Male Hartley guinea pigs (Japan SLC Inc.) weighing 400 to 620 g were used for the infection study. One side of a paper disc (1.5 mm thick×8 mm diameter) was covered with a piece of aluminum foil while the other side was free to carry the inoculum suspension. The disc was immersed with 50 μl of the inoculum suspension (trichophyton mentagrophytes TIMM 2789, 1×10^8 conidia/ml), and was then fixed on the planta pedis of animal feet with an adhesive elastic tape. The disc was removed on the seventh day postinfection. Each agent dissolved in PEG 400 (0.1 ml/locus) was topically applied to the whole soles of guinea pigs once a day for 3 consecutive days, starting on the 10th day postinfection. Five days after the last treatment, the skin tissue from each planta pedis and the corresponding tarsus of all animals was cut into small blocks (about 2×2 mm). Ten skin blocks obtained from each part of the foot were implanted on a Sabouraud's glucose agar plate containing antibiotics, and were cultured at 27° C. for 14 days. The skin blocks yielding fungal growth were regarded as culture-positive, and the foot (planta pedis plus tarsus) with more than one culture-positive skin block was considered fungus-positive. In addition, the intensity of infection was assessed by the scores based on the number of culture-positive skin blocks. Namely, +10, +9, +8, +7, +6, +5, +4, +3, +2, +1 or 0 was given as the score according to the corresponding number of culture-positive skin blocks out of ten skin blocks studied. Statistical analyses for the rate of fungus-positive feet and the average intensity of infection were assessed by Fisher's exact probably test and Mann-Whitney's U-test, respectively.

The subject of assay [2] is Trichophyton mentagrophytes. Description: In vitro activity against Trichophyton mentagrophytes, MIC by twofold macro-broth dilution (Test Example 1). It is filed as cell-based. Particulars: Trichophyton mentagrophytes, 7 days at 27° C. How it is done: (§1) Minimum inhibitory concentrations (MICs) were determined by the twofold macro-broth dilution method with Sabouraud's glucose broth which constituted with 1% bactopeptone and 4% glucose. To each tube containing 9.8 ml of the broth, 0.1 ml of each testing compound dissolved in DMSO and 0.1 ml of a conidial suspension (1×10^6 conidia/ml) were added. The fungal growth was observed after incubation for 7 days at 27° C. The MIC was determined as the lowest drug concentration which prevented a visible fungal growth.
(In broth dilution the organism is exposed to a series of concentrations in liquid medium.)

A further assay deals with Candida albicans. Description: In vitro antifungal activity against Candida albicans, MIC by twofold micro-broth dilution (Test Example 3). In kind it is cell-based. Conditions: 48 hours at 35° C., pH 7.0, read-out: MIC. As to the method:
MICs were determined by the twofold micro-broth dilution method with RPMI 1640 buffered with morphorino-propanesulfonic acid to a final molarity of 0.165M (pH 7.0). One hundred μl of a yeast cell suspension (1 to 5×10^3 cells/ml) and 100 μl of the compound-containing medium were pipetted into each well flat-bottomed microtiter plates. After incubation for 48 hours at 35° C., the turbidity of each well was measured at 630 nm.

The next assay relates to Aspergillus fumigatus. Description: In vitro antifungal activity against Aspergillus fumigatus, MIC by twofold agar dilution (Test Example 4). It is filed as cell-based. How it is done: MICs were determined by the twofold agar dilution method with casitone agar which constituted with 0.9% bactocasitone, 1% bacto-yeast extract, 2% glucose, 0.1% KH2 PO4, 0.1% Na2 HPO4, 1% Na3 C6 H5 O7 and 1.6% agar. A loopful of each inoculum (1×10^6 conidia/ml) was streaked onto the agar plate containing a compound, and a fungal growth was observed after incubation for 48 hours at 35° C. The MIC was determined as the lowest drug concentration which prevented a visible fungal growth.
On the technique in general: Agar dilution tests growth on a series of plates holding different concentrations.

In another assay the test system is Trichophyton rubrum. Description: In vitro activity against Trichophyton rubrum, MIC by twofold macro-broth dilution (Test Example 1). In kind it is cell-based. As to the method:
as §1

Where [3] appears, read: 1% in PEG 400, topical once a day for 3 days, p < 0.01 vs untreated and PEG 400, Compound (A) also p < 0.05 vs 1% Racemic Compound (A).
[4] abbreviates: 1% in PEG 400, topical once a day for 3 days, p < 0.01 vs untreated and PEG 400 control.

The structures appear in SMILES notation. Converted amounts (≈) assume the structure as drawn. Where two headings read alike, the source gives them in different places.

By MIC is commonly meant the smallest concentration in the dilution series that meets the test's criterion for growth inhibition. With `N#C/C(=C1/SCC(c2ccccc2Cl)S1)n1ccnc1` (racemic) [Racemic Compound (A), (±)-(E)-[4-(2-chlorophenyl)-1,3-dithiolan-2-ylidene]-1-imidazolylacetonitrile], the “Fungus-positive rate (%)” value in assay [1] (setting [3]) stood at 40%. Also, in assay [1] (setting [3]), the “Fungus-positive rate: The number of positive feet/The total number of feet” value was 4/10 and four feet among the inoculated ten feet. Moreover, the “Average intensity of infection, planta pedis (score 0 to +10)” value in assay [1] (setting [4]) is given as “+0.6”. In assay [1] (setting [4]), the “Average intensity of infection, tarsus (score 0 to +10)” value was “+0.2”. Besides, in assay [1] (1% treated group), the “curative effect (in words)” value is recorded as “significant curative effect”. Besides, the minimal inhibitory concentration (MIC) in assay [2] (IFO5466, 168 h, strain IFO 5466) is 0.04 µg/mL (≈ 0.125 µM); in assay [2] (IFO5809, 168 h, strain IFO 5809), 0.01 µg/mL (≈ 0.0313 µM); in assay [2] (IFO5810, 168 h, strain IFO 5810), 0.01 µg/mL (≈ 0.0313 µM); in assay [2] (IFO5811, 168 h, strain IFO 5811), 0.04 µg/mL (≈ 0.125 µM); in assay [2] (IFO5929, 168 h, strain IFO 5929) it was 0.02 µg/mL (≈ 0.0625 µM); in assay [2] (TIMM1189, 168 h, strain TIMM 1189), 0.04 µg/mL (≈ 0.125 µM). In addition, the MIC was 0.04 µg/mL (≈ 0.125 µM) in assay [2] (TIMM1814, 168 h, strain TIMM 1814); 0.04 µg/mL (≈ 0.125 µM) in assay [2] (TIMM1815, 168 h, strain TIMM 1815); 0.04 µg/mL (≈ 0.125 µM) in assay [2] (TIMM1817, 168 h, strain TIMM 1817); 0.01 µg/mL (≈ 0.0313 µM) in assay [2] (TIMM2789, 168 h, strain TIMM 2789); 0.25 µg/mL (≈ 0.782 µM) with Candida albicans (IFO0197, strain IFO 0197, 80% inhibition); 0.0625 µg/mL (≈ 0.195 µM) in the assay on Candida albicans (IFO0579, strain IFO 0579, 80% inhibition). For the same compound, the MIC with Candida albicans (IFO1269, strain IFO 1269, 80% inhibition) amounted to 0.125 µg/mL (≈ 0.391 µM); in the assay with Candida albicans (IFO1270, strain IFO 1270, 80% inhibition), 1 µg/mL (≈ 3.13 µM); in the assay with Candida albicans (IFO1385, strain IFO 1385, 80% inhibition) it was 0.25 µg/mL (≈ 0.782 µM); in the assay with Candida albicans (IFO1386, strain IFO 1386, 80% inhibition) it was 0.25 µg/mL (≈ 0.782 µM); in the assay on Candida albicans (TIMM3163, strain TIMM 3163, 80% inhibition), 16 µg/mL (≈ 50 µM); in the assay on Candida albicans (TIMM3164, strain TIMM 3164, 80% inhibition), 0.5 µg/mL (≈ 1.56 µM). Further, the MIC in the assay with Candida albicans (TIMM3165, strain TIMM 3165, 80% inhibition) was 4 µg/mL (≈ 12.5 µM); with Candida albicans (TIMM3166, strain TIMM 3166, 80% inhibition), 2 µg/mL (≈ 6.25 µM); in the assay with Aspergillus fumigatus (TIMM0063, strain TIMM 0063, 48 hours at 35° C., read-out: MIC), 0.0013 µg/mL (≈ 0.00406 µM); in the assay on Aspergillus fumigatus (TIMM0078, strain TIMM 0078, 48 hours at 35° C., read-out: MIC) it was 0.0013 µg/mL (≈ 0.00406 µM); in the assay with Aspergillus fumigatus (TIMM1728, strain TIMM 1728, 48 hours at 35° C., read-out: MIC) it was 0.0013 µg/mL (≈ 0.00406 µM); in the assay on Aspergillus fumigatus (TIMM1767, strain TIMM 1767, 48 hours at 35° C., read-out: MIC) it was 0.0025 µg/mL (≈ 0.00782 µM). Further, the MIC against Trichophyton rubrum (IFO5467, 168 h, strain IFO 5467, 7 days at 27° C.) came to 0.005 µg/mL (≈ 0.0156 µM); against Trichophyton rubrum (IFO5807, 168 h, strain IFO 5807, 7 days at 27° C.), 0.01 µg/mL (≈ 0.0313 µM); against Trichophyton rubrum (IFO5808, 168 h, strain IFO 5808, 7 days at 27° C.), 0.01 µg/mL (≈ 0.0313 µM); against Trichophyton rubrum (IFO6203, 168 h, strain IFO 6203, 7 days at 27° C.) it was 0.005 µg/mL (≈ 0.0156 µM); in the assay with Trichophyton rubrum (IFO6204, 168 h, strain IFO 6204, 7 days at 27° C.), 0.01 µg/mL (≈ 0.0313 µM); with Trichophyton rubrum (IFO9185, 168 h, strain IFO 9185, 7 days at 27° C.), 0.0025 µg/mL (≈ 0.00782 µM). Further, the MIC came to 0.005 µg/mL (≈ 0.0156 µM) in the assay on Trichophyton rubrum (TIMM1822, 168 h, strain TIMM 1822, 7 days at 27° C.); 0.01 µg/mL (≈ 0.0313 µM) in the assay on Trichophyton rubrum (TIMM1823, 168 h, strain TIMM 1823, 7 days at 27° C.); 0.005 µg/mL (≈ 0.0156 µM) in the assay with Trichophyton rubrum (TIMM1824, 168 h, strain TIMM 1824, 7 days at 27° C.); 0.0013 µg/mL (≈ 0.00406 µM) against Trichophyton rubrum (TIMM1830, 168 h, strain TIMM 1830, 7 days at 27° C.).

Consider `CCC(C)n1ncn(-c2ccc(N3CCN(c4ccc(OC[C@H]5CO[C@](Cn6cncn6)(c6ccc(Cl)cc6Cl)O5)cc4)CC3)cc2)c1=O` (relative stereo) [ITZ, (±)1-sec-Butyl-4-[p[4[p[[2R*,4S*2-(2,4-dichlorophenyl)-2-(1H-1,2,4-trizol-1-ylmethyl)-1,3-dioxolan-4-yl]methoxy]phenyl1-piperazinyl]phenyl.DELTA^21,2,4-triazolin-5-one], for which the MIC in the assay with Aspergillus fumigatus (TIMM0063, 48 h) worked out at 0.04 µg/mL (≈ 0.0567 µM); against Aspergillus fumigatus (TIMM0078, 48 h) it was 0.04 µg/mL (≈ 0.0567 µM); against Aspergillus fumigatus (TIMM1728, 48 h), 0.08 µg/mL (≈ 0.113 µM); against Aspergillus fumigatus (TIMM1767, 48 h), 0.08 µg/mL (≈ 0.113 µM).

The values above are taken from patent US5900488A, “Method for treating mycosis using imidazolylacetonitrile derivatives” (Nihon Nohyaku Co., Ltd., priority 1995, dated 1999).
